Test results taken from patent US8883793B2, “Tubulin inhibitors and methods of using the same” (Development Center for Biotechnology, priority 2010, dated 2014).

How the values were obtained:
KB cell = test: MTS assay, growth inhibition of KB cells; type: cell-based; conditions: Homo sapiens, at 10 μM concentration, incubated for 72 h, read-out: Inhibition rate (%) (growth inhibition rate of MTS assay)
In short: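 KB cells were allowed 24 h to attach before a 72 h exposure to compound at 10 μM. Viability was measured by MTS/PMS reduction, with absorbance read at 490 nm after 3 h. Values are reported as percent growth inhibition.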

porcine brain tubulin = test: Tubulin polymerization assay; type: biochemical; conditions: at 10 μM concentration
Description: In vitro tubulin polymerization assay was performed by using the Tubulin Polymerization Assay Kit (Cytoskeleton, Inc., Denver, Colo.) in a 96-well format, which used the polymerization of porcine brain tubulin in vitro in the presence of varying concentrations of the test compounds. Fluorescence measurements were obtained at 1-minute intervals over a 31-minute period. Fluorescent measurements were performed using excitation at 365 nm, and emission was measured at 440 nm using a Packard Fusion Alpha Microplate Analyzer. Data were analyzed as relative fluorescent units by GraphPad Prism 5 Demo.

A549 = test: MTS assay, A549; type: cell-based; conditions: Homo sapiens, 72 h, read-out: IC50 from MTS assay
Description: (§1) MTS assay was performed in determining the growth inhibition of cancer cells. MTS ((3-(4,5-dimethylthiazol-2-yl)-5-(3-carboxymethoxyphenyl)-2-(4-sulfophenyl)-2H-tetrazolium)), in the presence of phenazine methosulfate (PMS) and reductases, produces a formazan product that has an absorbance maximum at 490-500 nm. MTS assays (and closely related MTT assay) are commonly used to measure cell viabilities or survivals.
(§2) Briefly, KB/Hela, NCI-H460, A375, Colo205, HCT-116, U937, MCF-7, MDA-MB-231, A549, H1975 cells were seeded into 96-well plate at 4000, 4000, 2000, 2000, 2000 cells/well. After 24 h for attachment, test compound was added into each well and incubated for 72 h. A total of 20 μl of MTS reaction reagent containing the MTS (Promega, Madison, Wis.) and PMS in a ratio of 20:1 was added into each well to react with dehydrogenase enzyme in survival cells. After 3 h, the absorbance at 490 nm was monitored using Emax precision microplate reader (Molecular Devices, Sunnyvale, Calif.).

MDA-MB-231 = test: MTS assay, MDA-MB-231; type: cell-based; conditions: Homo sapiens, 72 h, read-out: IC50 from MTS assay
Description: as §1, §2

biotinylated tubulin = test: Colchicine competitive-binding assay; conditions: at 10 μM concentration; 3H-colchicine; left column pair of Table 7
Description: The colchicine competitive-binding assay was done by using the Colchicine Site competitive Assay Kit (Cytoskeleton, Inc.), streptavidin-coated yttrium SPA beads(GE Healthcare, Inc.), and ^3H-colchicine(PerkinElmer, Inc.). Briefly, the binding mixture includes 1 μL^3H-labeled ligand (specific activity […]), and 1 μg biotinylated tubulin and 88 μg SPA beads in 200 μL assay buffer. The test compound and ^3H-labeled ligand were added before tubulin. After incubation at 37° C. for 2 hours, the SPA beads were allowed to settle down for 24 hours at room temperature, and scintillation counting was done on the TopCount Microplate Scintillation Counter.

H1975 = test: MTS assay, H1975; type: cell-based; conditions: Homo sapiens, NCI-H1975, 72 h, read-out: IC50 from MTS assay
Description: as §1, §2

U937 = test: MTS assay, U937; type: cell-based; conditions: Homo sapiens, U-937, 72 h, read-out: IC50 from MTS assay
Description: as §1, §2

A375 = test: MTS assay, A375; type: cell-based; conditions: Homo sapiens, A-375, 72 h, read-out: IC50 from MTS assay
Description: as §1, §2

Colo205 = test: MTS assay, Colo205; type: cell-based; conditions: Homo sapiens, COLO 205, 72 h, read-out: IC50 from MTS assay
Description: as §1, §2

IC50 (A549): 58 nM
IC50 (MDA-MB-231): 182 nM
binding rate (%) (colchicine competitive-binding) (biotinylated tubulin): 92.9%
IC50 (H1975): 141 nM
IC50 (U937): 23.2 nM
IC50 (A375): 34.6 nM
IC50 (Colo205): 68.2 nM
Compound: COc1ccc(Sc2cnc(NC(=O)CCc3cccnc3)s2)cc1 [Compound 70, N-[5-(4-Methoxy-phenylsulfanyl)-thiazol-2-yl]-3-pyridin-3-yl-propionamide]
inhibition at 10 µM (KB cell): 78.5%
Inhibition rate (%) of tubulin polymerization (porcine brain tubulin): 59.6%
